The values that follow come from patent US20240158412A1 (Faxian Therapeutics, LLC, priority 2021, published 2024).

SMILES strings stand for the structures.

What is called IC50 is the point on the concentration scale where inhibition reaches its midpoint. A higher IC50 goes with weaker potency.
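Note: fluorescence intensity readout of USP7 enzymatic activity, reaction incubated 90 min at room temperature.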

For the experiment, the target named is USP7 (Homo sapiens, UniProt Q93009). Put plainly: biochemical.
Sequence of USP7 (Q93009 whole entry): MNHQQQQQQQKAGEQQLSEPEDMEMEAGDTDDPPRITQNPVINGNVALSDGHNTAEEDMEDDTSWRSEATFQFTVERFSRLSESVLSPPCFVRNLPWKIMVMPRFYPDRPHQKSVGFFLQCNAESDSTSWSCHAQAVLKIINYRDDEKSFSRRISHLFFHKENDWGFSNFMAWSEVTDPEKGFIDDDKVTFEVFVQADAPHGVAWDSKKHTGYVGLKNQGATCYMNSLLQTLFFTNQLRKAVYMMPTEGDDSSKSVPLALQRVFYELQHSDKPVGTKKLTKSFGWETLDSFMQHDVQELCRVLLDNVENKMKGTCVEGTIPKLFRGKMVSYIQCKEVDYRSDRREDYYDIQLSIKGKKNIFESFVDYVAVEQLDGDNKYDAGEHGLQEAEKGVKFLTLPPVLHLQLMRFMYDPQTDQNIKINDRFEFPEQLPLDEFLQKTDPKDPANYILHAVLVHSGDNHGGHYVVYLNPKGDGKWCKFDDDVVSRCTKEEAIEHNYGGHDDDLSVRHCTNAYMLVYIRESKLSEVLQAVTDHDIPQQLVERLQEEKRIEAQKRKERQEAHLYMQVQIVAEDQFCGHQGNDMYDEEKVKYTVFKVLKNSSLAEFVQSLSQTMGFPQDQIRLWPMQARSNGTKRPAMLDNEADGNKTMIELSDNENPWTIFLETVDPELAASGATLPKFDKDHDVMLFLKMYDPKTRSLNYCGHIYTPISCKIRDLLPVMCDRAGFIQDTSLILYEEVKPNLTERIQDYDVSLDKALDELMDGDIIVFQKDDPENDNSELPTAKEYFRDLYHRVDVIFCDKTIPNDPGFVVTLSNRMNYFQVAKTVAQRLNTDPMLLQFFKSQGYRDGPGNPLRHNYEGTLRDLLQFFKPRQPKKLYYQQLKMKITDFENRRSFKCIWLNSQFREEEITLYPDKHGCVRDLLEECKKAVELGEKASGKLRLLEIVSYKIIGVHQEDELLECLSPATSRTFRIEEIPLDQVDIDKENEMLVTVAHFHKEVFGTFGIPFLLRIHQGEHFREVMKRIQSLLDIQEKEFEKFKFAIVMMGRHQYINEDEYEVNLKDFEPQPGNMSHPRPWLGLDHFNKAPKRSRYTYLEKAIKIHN
`CN1CC[C@H](N2CCCc3cc(Cl)cc(-c4ccnc5cc(CN6C(=O)CCC6=O)sc45)c32)C1` [Example 59, (S)-1-((7-(6-chloro-1-(1-methylpyrrolidin-3-yl)-1,2,3,4-tetrahydroquinolin-8-yl)thieno[3,2-b]pyridin-2-yl)methyl)pyrrolidine-2,5-dione] had a half-maximal inhibitory concentration (IC50) of less than 10 nM. Then `CN1CC[C@@H](N2CCCc3cc(Cl)cc(-c4ccnc5cc(CN6C(=O)CCC6=O)sc45)c32)C1` [Example 60, (R)-1-((7-(6-chloro-1-(1-methylpyrrolidin-3-yl)-1,2,3,4-tetrahydroquinolin-8-yl)thieno[3,2-b]pyridin-2-yl)methyl)pyrrolidine-2,5-dione], with less than 10 nM; and `O=c1ccn(CCOC(F)F)c(=O)n1Cc1cc2nccc(-c3cc(Cl)cc4c3N([C@H]3CCNC3)CCC4)c2s1` [Example 61, (S)-3-((7-(6-chloro-1-(pyrrolidin-3-yl)-1,2,3,4-tetrahydroquinolin-8-yl)thieno[3,2-b]pyridin-2-yl)methyl)-1-(2-(difluoromethoxy)ethyl)pyrimidine-2,4(1H,3H)-dione], with less than 10 nM. In turn, `O=c1ccn(CC2CC2)c(=O)n1Cc1cc2nccc(-c3cc(Cl)cc4c3N([C@H]3CCNC3)CCC4)c2s1` [Example 62, (S)-3-((7-(6-chloro-1-(pyrrolidin-3-yl)-1,2,3,4-tetrahydroquinolin-8-yl)thieno[3,2-b]pyridin-2-yl)methyl)-1-(cyclopropylmethyl)pyrimidine-2,4(1H,3H)-dione] came in with an IC50 of less than 10 nM.

Molecule `Cn1ccc(=O)n(Cc2cc3nccc(-c4cc(Cl)cc5c4N([C@H]4CCNC4)CCC5)c3s2)c1=O` [Example 63, (S)-3-((7-(6-chloro-1-(pyrrolidin-3-yl)-1,2,3,4-tetrahydroquinolin-8-yl)thieno[3,2-b]pyridin-2-yl)methyl)-1-methylpyrimidine-2,4(1H,3H)-dione] yielded a 50% inhibitory concentration (IC50) of less than 10 nM. As for `O=c1ccn(C[C@H](O)C(F)(F)F)c(=O)n1Cc1cc2nccc(-c3cc(Cl)cc4c3N([C@H]3CCNC3)CCC4)c2s1` [Example 64], the figure is less than 10 nM; as for `O=c1ccn(C[C@@H](O)C(F)(F)F)c(=O)n1Cc1cc2nccc(-c3cc(Cl)cc4c3N([C@H]3CCNC3)CCC4)c2s1` [Example 65, 3-((7-(6-chloro-1-((S)-pyrrolidin-3-yl)-1,2,3,4-tetrahydroquinolin-8-yl)thieno[3,2-b]pyridin-2-yl)methyl)-1-((R)-3,3,3-trifluoro-2-hydroxypropyl)pyrimidine-2,4(1H,3H)-dione], less than 10 nM; as for `COCCc1cnn(Cc2cc3nccc(-c4cc(Cl)cc5c4N([C@H]4CCNC4)CCC5)c3s2)c(=O)c1` [Example 66, (S)-2-((7-(6-chloro-1-(pyrrolidin-3-yl)-1,2,3,4-tetrahydroquinolin-8-yl)thieno[3,2-b]pyridin-2-yl)methyl)-5-(2-methoxyethyl)pyridazin-3(2H)-one], less than 10 nM. `O=c1ccn(CCC(F)F)c(=O)n1Cc1cc2nccc(-c3cc(Cl)cc4c3N([C@H]3CCNC3)CCC4)c2s1` [Example 67, (S)-3-((7-(6-chloro-1-(pyrrolidin-3-yl)-1,2,3,4-tetrahydroquinolin-8-yl)thieno[3,2-b]pyridin-2-yl)methyl)-1-(3,3-difluoropropyl)pyrimidine-2,4(1H,3H)-dione]: the IC50 is less than 10 nM. The molecule `O=c1n(Cc2cc3nccc(-c4cc(Cl)cc5c4N([C@H]4CCNC4)CCC5)c3s2)nc2n1CCC2` [Example 68, (S)-2-((7-(6-chloro-1-(pyrrolidin-3-yl)-1,2,3,4-tetrahydroquinolin-8-yl)thieno[3,2-b]pyridin-2-yl)methyl)-6,7-dihydro-2H-pyrrolo[2,1-c][1,2,4]triazol-3(5H)-one] gave an IC50 of less than 10 nM. As for `O=c1ccn(CC2(C(F)F)CC2)c(=O)n1Cc1cc2nccc(-c3cc(Cl)cc4c3N([C@H]3CCNC3)CCC4)c2s1` [Example 69, (S)-3-((7-(6-chloro-1-(pyrrolidin-3-yl)-1,2,3,4-tetrahydroquinolin-8-yl)thieno[3,2-b]pyridin-2-yl)methyl)-1-((1-(difluoromethyl)cyclopropyl)methyl)pyrimidine-2,4(1H,3H)-dione], the figure is less than 10 nM; as for `N#CC1(Cn2ccc(=O)n(Cc3cc4nccc(-c5cc(Cl)cc6c5N([C@H]5CCNC5)CCC6)c4s3)c2=O)CC1` [Example 70, (S)-1-((3-((7-(6-chloro-1-(pyrrolidin-3-yl)-1,2,3,4-tetrahydroquinolin-8-yl)thieno[3,2-b]pyridin-2-yl)methyl)-2,4-dioxo-3,4-dihydropyrimidin-1(2H)-yl)methyl)cyclopropanecarbonitrile], less than 10 nM. For the molecule `O=C1c2ccccc2CN1Cc1cc2nccc(-c3cc(Cl)cc4c3N([C@H]3CCNC3)CCC4)c2s1` [Example 71, (S)-2-((7-(6-chloro-1-(pyrrolidin-3-yl)-1,2,3,4-tetrahydroquinolin-8-yl)thieno[3,2-b]pyridin-2-yl)methyl)isoindolin-1-one], the half-inhibitory concentration (IC50) was in the range of 101 to 1000 nM. Then `O=c1ccn(C2CC2)c(=O)n1Cc1cc2nccc(-c3cc(Cl)cc4c3N([C@H]3CCNC3)CCC4)c2s1` [Example 72, (S)-3-((7-(6-chloro-1-(pyrrolidin-3-yl)-1,2,3,4-tetrahydroquinolin-8-yl)thieno[3,2-b]pyridin-2-yl)methyl)-1-cyclopropylpyrimidine-2,4(1H,3H)-dione], with less than 10 nM; and `O=C1COC(=O)N1Cc1cc2nccc(-c3cc(Cl)cc4c3N([C@H]3CCNC3)CCC4)c2s1` [Example 73, (S)-3-((7-(6-chloro-1-(pyrrolidin-3-yl)-1,2,3,4-tetrahydroquinolin-8-yl)thieno[3,2-b]pyridin-2-yl)methyl)oxazolidine-2,4-dione], with less than 10 nM.

Molecule `CN1CC(=O)N(Cc2cc3nccc(-c4cc(Cl)cc5c4N([C@H]4CCNC4)CCC5)c3s2)C1=O` [Example 74, (S)-3-((7-(6-chloro-1-(pyrrolidin-3-yl)-1,2,3,4-tetrahydroquinolin-8-yl)thieno[3,2-b]pyridin-2-yl)methyl)-1-methylimidazolidine-2,4-dione] registered an IC50 of less than 10 nM.

`O=c1ccn(C2CC(F)(F)C2)c(=O)n1Cc1cc2nccc(-c3cc(Cl)cc4c3N([C@H]3CCNC3)CCC4)c2s1` [Example 75]: the half-maximal inhibitory concentration (IC50) is less than 10 nM.

For `CN1CCC(=O)N(Cc2cc3nccc(-c4cc(Cl)cc5c4N([C@H]4CCNC4)CCC5)c3s2)C1=O` [Example 76, (S)-3-((7-(6-chloro-1-(pyrrolidin-3-yl)-1,2,3,4-tetrahydroquinolin-8-yl)thieno[3,2-b]pyridin-2-yl)methyl)-1-methyldihydropyrimidine-2,4(1H,3H)-dione], the concentration for half-maximal inhibition (IC50) is less than 10 nM.

`O=C1CCN(CC(F)(F)F)C(=O)N1Cc1cc2nccc(-c3cc(Cl)cc4c3N([C@H]3CCNC3)CCC4)c2s1` [Example 77, (S)-3-((7-(6-chloro-1-(pyrrolidin-3-yl)-1,2,3,4-tetrahydroquinolin-8-yl)thieno[3,2-b]pyridin-2-yl)methyl)-1-(2,2,2-trifluoroethyl)dihydropyrimidine-2,4(1H,3H)-dione] came in with an IC50 of less than 10 nM. `O=c1ccn(CC(F)F)c(=O)n1Cc1cc2nccc(-c3cc(C(F)(F)F)cc4c3N([C@H]3CCNC3)CCC4)c2s1` [Example 81, (S)-1-(2,2-difluoroethyl)-3-((7-(1-(pyrrolidin-3-yl)-6-(trifluoromethyl)-1,2,3,4-tetrahydroquinolin-8-yl)thieno[3,2-b]pyridin-2-yl)methyl)pyrimidine-2,4(1H,3H)-dione] had a half-maximal inhibitory concentration (IC50) of less than 10 nM.
